Test results taken from patent US6800659B2, “Compounds for modulating cell proliferation” (HSC Research and Development Limited Partnership, priority 2000, dated 2004).

Assays:
[1] = tested on: Philadelphia positive acute lymphoblastic leukemia (Ph+ ALL) cells; assay: Colony growth of Philadelphia positive ALL cells in methylcellulose culture; format: cell-based, human
Method: Ph+ ALL cells were plated in 1 ml volumes, in the absence of exogenous growth factors, into 35 mm petri dishes (Nunc, Gibco) containing alpha MEM (Gibco) plus 10% FCS (Cansera Rexdale, ON.) in 0.9% (vol/vol) methylcellulose (Fluka, Switzerland) with the indicated concentrations of CR4. Cultures were set at 37° C., 5% CO2 in a humidified atmosphere. Colonies consisting of more than 20 cells were counted at 12 days or earlier using an inverted microscope.
ALL cells were plated in 1 ml volumes, in the absence of exogenous growth factors, into 35 mm petri dishes (Nunc, Gibco) containing alpha MEM (Gibco) plus 20% FCS (Cansera Rexdale, ON.) in 0.9% (vol/vol) methylcellulose (Fluka, Switzerland) and the indicated concentrations of compound Cultures were set at 37° C., 5% CO2 in a humidified atmosphere Colonies consisting of more than 20 cells were counted at 12 days or earlier using an inverted microscope.
ALL cells were plated in 1 ml volumes, in the absence of exogenous growth factors, into 35 mm petri dishes (Nunc, Gibco) containing alpha MEM (Gibco) plus 20% FCS (Cansera Rexdale, ON) in 0.90% (vol/vol) methylcellulose (Fluka, Switzerland) and the indicated concentrations of compound. Cultures were set at 37° C., 5% CO2 in a humidified atmosphere. Colonies consisting of more than 20 cells were counted at 12 days or earlier using an inverted microscope.
ALL cells were plated in 1 ml volumes, in the absence of exogenous growth factors, into 35 mm petri dishes (Nunc, Gibco) containing alpha MEM (Gibco) plus 20% FCS (Cansera Rexdale, ON.) in 0.9% (vol/vol) methylcellulose (Fluka, Switzerland) and the indicated concentrations of CR24. Cultures were set at 37° C., 5% CO2 in a humidified atmosphere. Colonies consisting of more than 20 cells were counted at 9 days or earlier using an inverted microscope.
ALL cells were plated in 1 ml volumes, in the absence of exogenous growth factors, into 35 mm petri dishes (Nunc, Gibco) containing alpha MEM (Gibco) plus 20% FCS (Cansera Rexdale, ON.) in 0.9% (vol/vol) methylcellulose (Fluka, Switzerland) and the indicated concentrations of CR19. Cultures were set at 37° C., 5% CO2 in a humidified atmosphere. Colonies consisting of more than 20 cells were counted at 9 days or earlier using an inverted microscope.

normal bone marrow cells = assay: In vitro purging of normal bone marrow, then colony assay; format: cell-based
Method: Heparinized bone marrow cells were layered over Percoll (1.077 gm/ml) (Pharmacia Fine Chemical, Piscataway N.J.) and centrifuged at 400 g at 4° C. for 10 minutes to remove neutrophils and RBCs.
For the purging process, the cells were resuspended at 1×10^6/ml in complete medium with or without 50 μM CR4. The cells were incubated with the CR4 for two and a half hours at 37° C., 5% CO2. At the end of this period the cells were thoroughly washed in medium to remove CR4 and then cultured at 2×10^5 cells/ml in IMDM (OCl, Toronto) containing 0.9% (vol/vol) methylcellulose supplemented with 30% FCS (Cansera Rexdale, ON.) or normal human plasma, a cocktail of cytokines containing G-CSF (10 ng/ml, Amgen), IL-3 (40 U/ml, Immunex), MGF (50 ng/ml, Immunex), Etryhropoietin (2 u/ml, Epprex) or TPO (10 ng/ml, Amgen) and 5×10^−5M b-2-mercaptoethanol. The culture mixture was plated in 1 ml volumes into 35 mm petri dishes and incubated at 37° C., 5% CO2 in a humidified atmosphere. All cultures were evaluated at 14 days for the number of BFU-E colonies (defined as aggregates of more than 500 hemaglobinized cells or, 3 or more erythroid subcolonies), CFU-C colonies (defined as granulocyte or monocyte-macrophage cells or both) and CFU-GEMM colonies (a mixed population comprising of all elements).
For the purging process, the cells were resuspended at 1×10^6/ml in complete medium with or without 50 μM CR11. The cells were incubated with the tryrphostin for seven hours at 37° C., 5% CO2. At the end of this period the cells were thoroughly washed in medium to remove CR11 and then cultured at 2×10^5 cells/ml in IMDM (OCl, Toronto) containing 0.9% (vol/vol) methylcellulose supplemented with 30% FCS (Cansera Rexdate, ON.) or normal human plasma, a cocktail of cytokines containing G-CSF (10 ng/ml, Amgen), IL-3 (40 U/ml, Immunex), MGF (50 ng/ml, Immunex), Erythropoietin (2 u/ml, Epprex) or TPO (10 ng/ml, Amgen) and 5×10^−5M β-2-mercaptoethanol. The culture mixture was plated in 1 ml volumes into 35 mm petri dishes and incubated at 37° C., 5% CO2 in a humidified atmosphere. All cultures were evaluated at 14 days for the number of BFU-E colonies (defined as aggregates of more than 500 hemoglobinized cells or, 3 or more erythroid subcolonies), CFU-C colonies (defined as granulocyte or monocyte-macrophage cells or both) and CFU-GEMM colonies (a mixed population comprising of all elements).

[2] = tested on: Ramos B cell Burkitt's lymphoma cells; assay: In vitro purging of Ramos B cell Burkitt's lymphoma cells; format: cell-based; details: 50 μM, 5 hours exposure (FIG. 18)
Method: For the purging assay, the cells were resuspended in complete medium with or without CR4 as indicated and incubated at 37° C., 5% CO2 for 0-5 hours. Cells were then washed thoroughly with medium to remove the CR4, resuspended and plated in 1 ml volumes, in the absence of exogenous growth factors, into 35 mm petri dishes (Nunc, Gibco) containing RPMI 1640 (Gibco) plus 10% FCS (Cansera Rexdale, ON.) in 0.9% (vol/vol) methylcellulose (Fluka, Switzerland). Cultures were set at 37° C., 5% CO2 in a humidified atmosphere. Colonies consisting of more than 20 cells were counted at 12 days or earlier using an inverted microscope.

[3] = Retention in blood after I.V. injection; format: in vivo; details: 30 minutes after I.V. injection
[4] = tested on: OCl-AML-3 acute myeloid leukemia cells; assay: Colony growth of AML-3 cells in methylcellulose culture; format: cell-based; details: 300-600 nM; colonies at 5-6 days (FIG. 4)
Method: OCl-AML-3 cells were plated in 35 mm petri dishes (Nunc, Gibco) in 1 ml volumes at a density of 3.3×10^3 cells/ml, in the absence of exogenous growth factors, containing alpha MEM plus 20% FCS (Cansera, Rexdale Ont.), and 0.9% (vol/vol) methylcellulose (Fluka, Switzerland) and the indicated concentrations of CR4. Cell cultures were incubated in a humidified atmosphere at 37° C. with 5% CO2. Colonies containing more than 20 cells were scored, using an inverted microscope, at 5-6 days.

[5] = two and a half hours exposure to 50 μM (FIG. 14)

## N#C/C(=C\C=C\c1ccc(O)c(O)c1)C(=O)NCc1ccccc1 [CR4, (E,E)-2-(benzylaminocarbonyl)-3-(3,4-dihydroxystyryl)acrylonitrile]
[1]; concentrations as low as 40 nM
  wipeout of bcr-abl transformed Philadelphia positive cells: > 90%
[1]; low nanomolar doses (35-100), colonies at 12 days (FIG. 2)
  inhibition of Ph+ ALL cell proliferation and survival: significant inhibition
Normal bone marrow cells; identical doses and times: 25-50 μM, 2.5 to 5 hour exposure
  normal bone marrow growth and differentiation: unaffected
Normal bone marrow cells; [5]
  BFU-E colonies: slight drop
  CFU-C colony numbers: increased significantly
Normal bone marrow cells; two and a half hours exposure to 50 μM, colonies at 14 days (FIG. 14)
  inhibition of colony formation: did not result in significant inhibition
[2]
  killing of Ramos cells: 70%
[3]
  retention: presence in the blood: still being detectable
[4]
  inhibition of AML-3 cell proliferation and survival: complete inhibition
